Results taken from patent US12201638B2, “Pharmaceutical compositions comprising (2S)-n-{(1S)-1-cyano-2-[4-(3-methyl-2-oxo-2,3-dihydro-1,3-benzoxazol-5-yl)phenyl]ethyl}-1,4-oxazepane-2-carboxamide” (ASTRAZENECA AB, priority 2018, dated 2025).

Test: Excipient compatibility: accelerated stability of Compound A tablets (degradation by chromatography)
Assay type: physicochemical
Conditions: stored at 50/75 for 45 days
Protocol: Excipient compatibility experiments were designed as linear D-optimal designs with qualitative factors of two or more levels. The formulations used in these experiments can be directly compressed into tablets. For dry processing, three factors were evaluated, namely binary filler combination, choice of disintegrant and choice of lubricant. In the experimental design shown below (see Table 3) the effect of an HPMC-based film coat as well as the addition of colloidal silicon dioxide was evaluated using repeat corners.
Pure drug substance was included as a reference in all conditions.
This is shown in FIG. 2, where tablets stored at 50/75 for 45 days are compared with neat drug substance stored in identical conditions as well as a freshly prepared standard solution from the same drug substance batch. The chromatograms are stacked in order of degradation (and slightly shifted for clarity).
However, the general trends from the other conditions could still be seen. […] Based on this, 70/XX data was omitted from the shelf life prediction model.
Five different peaks were monitored at five different conditions. However, as discussed above, the 70/XX condition was excluded based on a probable conversion to Form B. Overall, Compound A in tablets containing glyceryl behenate appears to degrade to a slightly lesser degree than magnesium stearate.

Cn1c(=O)oc2ccc(-c3ccc(C[C@@H](C#N)NC(=O)[C@@H]4CNCCCO4)cc3)cc21 [Compound A, (2S)-N-{(1S)-1-cyano-2-[4-(3-methyl-2-oxo-2,3-dihydro-1,3-benzoxazol-5-yl)phenyl]ethyl}-1,4-oxazepane-2-carboxamide]
Degradation (overlaid chromatograms, FIG. 2): almost no difference
